Results taken from patent US20160368919A1, “NOVEL PYRIDINE PYRAZINONES AS BET-FAMILY BROMODOMAIN INHIBITORS” (Pfizer Inc., priority 2015, published 2016).

Assays:
Type in all cases: cell-based
[1] = system: LnCaP cells, AR(+); assay: CRPC cell proliferation assay (CellTiter-Glo), LnCaP; details: CTG at 96h
Experimental: (§1) Castrate-Resistant Prostate Cancer (CRPC) Cell Proliferation Assay • Cells were seeded into 96-well plates at 2,000-10,000 cells/well in 100 uL medium. Four AR(+) cell lines (LnCaP, C4-2 (parental), C4-2AR-WT and C4-2AR—F876L) and one AR(−) cell line (DU-145) were studied. Compound treated cells were analyzed for cell density at 96h, using CellTiter-Glo® (CTG) reagent (Promega).

[2] = system: C4-2 (parental) cells, AR(+); assay: CRPC cell proliferation assay (CellTiter-Glo), C4-2; details: CTG at 96h
Experimental: as §1

[3] = system: C4-2AR-WT cells, AR(+); assay: CRPC cell proliferation assay (CellTiter-Glo), C4-2AR-WT; details: CTG at 96h
Experimental: as §1

[4] = system: C4-2AR-F876L cells, AR(+); assay: CRPC cell proliferation assay (CellTiter-Glo), C4-2AR-F876L; details: CTG at 96h
Experimental: as §1

[5] = system: DU-145 cells, AR(−); assay: CRPC cell proliferation assay (CellTiter-Glo), DU-145; details: CTG at 96h
Experimental: as §1

[6] = system: CRPC cell lines (LnCaP, C4-2, C4-2AR-WT, C4-2AR-F876L, DU-145); assay: CRPC cell proliferation assay, summary over the cell lines
Experimental: Castrate-Resistant Prostate Cancer (CRPC) Cell Proliferation Assay • Cells were seeded into 96-well plates at 2,000-10,000 cells/well in 100 uL medium. Four AR(+) cell lines (LnCaP, C4-2 (parental), C4-2AR-WT and C4-2AR—F876L) and one AR(−) cell line (DU-145) were studied. Compound treated cells were analyzed for cell density at 96h, using CellTiter-Glo® (CTG) reagent (Promega). […] Example 10 and IBET-151 BET had submicromolar IC50 values in the AR(+) cell lines. The inhibitors maintained potency in C4-2 cells engineered to express wild type (WT) AR receptor (C4-2-AR-WT), as well as cells engineered to express the F876L mutation (C4-2-AR-F876L) that confers resistance to androgen receptor (AR) antagonists.

[7] = system: MM1.S cells; assay: MM1.S cell proliferation assay (CellTiter-Glo); details: for IC50: MM1.S, CTG at 96h; for inhibition of proliferation of MM1.S cells: dose dependent manner, FIG. 1.A
Experimental: (§2) MM1.S (dexamethasone sensitive) and OPM-2 cells were purchased from ATCC and maintained in RPMI-1640 medium with 10% fetal bovine serum at 37 degrees, 5% CO2. Cells were seeded at 10,000 cells/well in 100 uL medium. The following day compounds or control vehicle (DMSO) were added at indicated concentrations in 10 ul volume. Compound treated OPM-2 cells and MM1.S cell were analyzed for cell density at 72h and 96h, respectively, using CellTiter-Glo® (CTG) reagent (Promega). The CTG assay measures the amount of ATP present, which indicates the number of viable cells in culture.

[8] = system: OPM-2 cells; assay: OPM-2 cell proliferation assay (CellTiter-Glo); details: for IC50: OPM-2, CTG at 72h; for inhibition of proliferation of OPM-2 cells: dose dependent manner, FIG. 1.B
Experimental: as §2

[9] = system: HCC2429 cells; assay: NMC HCC2429 cell proliferation assay (CellTiter-Glo); details: HCC2429, CTG at 96h
Experimental: NMC HCC2429 Cell Proliferation Assay • HCC2429 cells were plated into a 96-well plate (10,000 cells/well). Compounds or control vehicle (DMSO) were added at indicated concentrations. Compound-treated HCC2429 cells were analyzed for cell density at 96h using CellTiter-Glo® (CTG) reagent (Promega).

[10] = system: MYC, SOX2, involucrin and Keratin 14 expression in HCC2429 cells; assay: Biomarker analysis in HCC2429 cells (RT-PCR, Western blot); details: for mRNA expression of involucrin: HCC2429, RT-PCR, 72 hours, 50 nM, 200 nM and 500 nM, dose dependent; for MYC protein level / SOX2 protein level: HCC2429, Western blot, 72 hrs, concentration-dependent
Experimental: HCC2429 cells were plated into a 6-well plate (250,000 cells/well). Cells were treated with compounds or control vehicle (DMSO) at the indicated concentrations for 72 hrs. Cells were collected, washed in PBS, and split for western blot and RNA analysis.

| SMILES | Max % Inh [1] | Max % Inh [2] | Max % Inh [3] | Max % Inh [4] | Max % Inh [5] | inhibition of proliferation of MM1.S cells [7] | inhibition of proliferation of OPM-2 cells [8] | mRNA expression of involucrin [10] | MYC protein level [10] | SOX2 protein level [10] | other results |
| --- | --- | --- | --- | --- | --- | --- | --- | --- | --- | --- | --- |
| COc1cc2c(cc1-c1c(C)noc1C)ncc1[nH]c(=O)n([C@H](C)c3ccccn3)c12 [i-BET151, reference compound] | 78% | 90% | 92% | 90% | 74% |  |  |  |  |  | IC50 ([1]; Homo sapiens): 400 nM; IC50 [2]: 490 nM; IC50 [3]: 430 nM; IC50 [4]: 470 nM; IC50 ([5]; Homo sapiens): 1130 nM; IC50 values in the AR(+) cell lines ([6]; AR(+) cell lines, CTG at 96h): submicromolar |
| CNC(=O)c1ccc(N2C(=S)N(c3ccc(C#N)c(C(F)(F)F)c3)C(=O)C2(C)C)cc1F [MDV3100, reference compound] | 43% | 33% | 39% | 44% | 23% |  |  |  |  |  | activity on cell proliferation ([6]; short-term assay, compared with the BET inhibitors): weaker activity |
| CCNC(=O)C[C@@H]1N=C(c2ccc(Cl)cc2)c2cc(OC)ccc2-n2c(C)nnc21 [IBET-762] |  |  |  |  |  | inhibited proliferation | inhibited proliferation | increased | down-regulated | down-regulated | IC50 ([7]; Homo sapiens): 12 nM; IC50 ([8]; Homo sapiens): 30 nM; IC50 ([9]; Homo sapiens): 85 nM |
| Cc1sc2c(c1C)C(c1ccc(Cl)cc1)=N[C@@H](CC(=O)OC(C)(C)C)c1nnc(C)n1-2 [JQ1(+)] |  |  |  |  |  | inhibited proliferation | inhibited proliferation | increased | down-regulated | down-regulated | IC50 [7]: 11 nM; IC50 [8]: 9 nM; IC50 [9]: 44 nM |
